Values of other authors as cited in patent publication EP0424553A1, “Substituted phenoxy alkanols for treatment of contact hypersensitivity” (priority 1989, dated 1991).

What was measured:
[1] = tested on: rat mast cells; settings: mediated by IgE- anti-IgE reaction
[2] = tested on: anaphylactic histamine release; settings: compared with chlorphenesin

Compound | degranulation of the rat mast cells [1] | anaphylactic histamine release-preventive effect [2]
O=C(O)c1cc(=O)c2c(OCC(O)COc3cccc4oc(C(=O)O)cc(=O)c34)cccc2o1 [cromolyn sodium] | inhibited | 
chlorphenesin succinate |  | much superior to chlorphenesin
